The values that follow come from patent publication US12454530B2, “Amido cyclohexane acid derivatives as LPA receptor inhibitors” (CHIESI FARMACEUTICI S.P.A., priority 2020, dated 2025).

Molecules are shown by their SMILES. Like-named read-outs stand apart in the source and are kept apart here.

Data set [1] deals with human recombinant LPA1 expressed in CHO cells (Homo sapiens (Human), UniProt Q92633). Put plainly: LPA1 antagonist FLIPR calcium assay in CHO-hLPA1 cells. Format: cell-based. How it is done: The effectiveness of compounds of the present invention as LPA1 antagonists can be determined at the human recombinant LPA1 expressed in CHO cells, using a FLIPR assay in 384 well format.
Chain of human recombinant LPA1 expressed in CHO cells (Q92633 whole entry): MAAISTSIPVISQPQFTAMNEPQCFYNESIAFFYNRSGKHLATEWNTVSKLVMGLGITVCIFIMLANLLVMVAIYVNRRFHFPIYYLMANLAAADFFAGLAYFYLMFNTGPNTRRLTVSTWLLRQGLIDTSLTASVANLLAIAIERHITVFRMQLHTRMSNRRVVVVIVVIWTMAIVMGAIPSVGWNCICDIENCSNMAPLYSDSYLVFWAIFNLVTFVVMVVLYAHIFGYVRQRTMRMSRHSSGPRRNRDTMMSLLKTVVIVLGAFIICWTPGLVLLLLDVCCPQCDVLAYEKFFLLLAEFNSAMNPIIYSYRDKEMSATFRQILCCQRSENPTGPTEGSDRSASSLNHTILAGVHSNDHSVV
CHO-hLPA1 cell lines are cultured in a humidified incubator at 5% CO2 in DMEM/F-12 (1:1) MIXTURE with 2 mM Glutamax, supplemented with 10% of Foetal Bovine Serum, 1 mM Sodium Pyruvate, 11 mM Hepes and 1× Penicillin/Streptomycin. […] Serial dilutions (1:3 or 1:4, 11 points CRC) of compounds are performed in 100% DMSO at 200× the final concentration. […] The final concentration of DMSO in the assay will be 0.5% in each well. Medium is removed by aspiration and cells are then incubated with 30 μl of a loading solution containing 5 μM of the cytoplasmic Ca2+ indicator Cal-520 AM in Assay Buffer containing 2.5 mM probenecid for 30 min at 37° C. incubator (cell loading). The loaded cell plates are transferred into the FLIPR instrument and calcium responses are monitored during the on-line addition protocols. For testing of compounds, after the cell loading, 10 μl/well of 4× antagonists' solution was added onto the cells. After 30 min pre-incubation (at 37° C.), 10 μl/well of 5× concentrated LPA EC80 was added and Ca2+ mobilization responses was followed during the on-line addition protocol. Intracellular peak fluorescence values subtracted by baseline fluorescence are exported and analysed to determine IC50 values, respectively. The calcium response is expressed as percentage of the maximal inhibition of the EC80 agonist response.
The raw data (peak height expressed as relative fluorescence units) are normalized and transformed into “percent of inhibition”. Curve fitting and pIC50 (−LogIC50) estimations are carried out using a four-parameter logistic model using XLfit Software.

A further data set addresses BSEP (Homo sapiens (Human), UniProt O95342). Put plainly: BSEP inhibition: biliary clearance of Taurocolic Acid in sandwich-cultured human hepatocytes. Format: in vitro ADME. Particulars: 50 μM test compound, 10 μM TCA, human hepatocytes sandwich configuration; for inhibition at 10 min, 50 μM: sandwich-cultured cryopreserved human hepatocytes, probe Taurocolic Acid (TCA). How it is done:
BSEP inhibition was evaluated using human hepatocytes cultured between two layer of collagen (sandwich configuration). In this culture condition, hepatocytes express relevant transporters including BSEP and retain the bile canalicular structure. An inhibition of the biliary clearance of Taurocolic Acid (TCA), a known BSEP substrate, was used to assess BSEP interaction.
BSEP inhibition was evaluated using cryopreserved human hepatocytes (Plateable Cryopreserved Human Hepatocytes, BIOIVT) cultured for 5 day between two layer of collagen (sandwich configuration). In this culture condition, hepatocytes express relevant transporters including BSEP and retain the bile canalicular structure.
On day 5 of culture, hepatic cells are ready for the assay and the biliary clearance of Taurocolic Acid (TCA), a known BSEP substrate, can be estimated in presence and in absence of compound of interest.
The sample solution was prepared dissolving test compound and TCA in DMSO and then diluted in the Assay Buffer: Hank's Balance Salt Solution (HBSS+) warmed at 37° C. before use, to give the 10 μM TCA working solution with and without 50 μM of test compound. Hepatocytes were incubated for 10 minutes with these working solutions allowing TCA to be excreted into bile. At the end of incubation, the working solution was aspirated, and the content of the bile was collected through the addition of HBSS Modified without Ca2+/Mg2+(HBSS−). The presence of Ca2+ in the buffer is required to maintain the integrity of the tight junctions, the diffusional barrier between the canalicular lumen and extracellular space. Instead, incubation of cells in Ca2+-free buffer disrupts the tight junctions and opens the bile canalicular structures, allowing the bile content to be released and collect for HPLC-MS/MS analysis.
The in vitro biliary clearance of TCA incubated with and without test compounds is calculated according to the following formula:
where • Acc. Bile=(TCA amount in HBSS (−) buffer samples (pmol/mg protein)*Volume of each samples (mL))/Protein content per well (mg) • AUC=Incubation time (min)*T0 Concentration. T0 concentration is the initial TCA concentration in the medium.
The inhibition of BSEP was calculated as percentage of inhibition of TCA biliary clearance in presence of compound of interest, according to the following formula: BSEP inhibition %=100−(TCA ClBil with test compound*100)
TCA ClBil without test compound.

The mark [2] stands for this setting: range of activity, CHO-hLPA1, LPA EC80, Ca2+ mobilization, read-out: LPA1 IC50.

Chain of BSEP (O95342 whole entry): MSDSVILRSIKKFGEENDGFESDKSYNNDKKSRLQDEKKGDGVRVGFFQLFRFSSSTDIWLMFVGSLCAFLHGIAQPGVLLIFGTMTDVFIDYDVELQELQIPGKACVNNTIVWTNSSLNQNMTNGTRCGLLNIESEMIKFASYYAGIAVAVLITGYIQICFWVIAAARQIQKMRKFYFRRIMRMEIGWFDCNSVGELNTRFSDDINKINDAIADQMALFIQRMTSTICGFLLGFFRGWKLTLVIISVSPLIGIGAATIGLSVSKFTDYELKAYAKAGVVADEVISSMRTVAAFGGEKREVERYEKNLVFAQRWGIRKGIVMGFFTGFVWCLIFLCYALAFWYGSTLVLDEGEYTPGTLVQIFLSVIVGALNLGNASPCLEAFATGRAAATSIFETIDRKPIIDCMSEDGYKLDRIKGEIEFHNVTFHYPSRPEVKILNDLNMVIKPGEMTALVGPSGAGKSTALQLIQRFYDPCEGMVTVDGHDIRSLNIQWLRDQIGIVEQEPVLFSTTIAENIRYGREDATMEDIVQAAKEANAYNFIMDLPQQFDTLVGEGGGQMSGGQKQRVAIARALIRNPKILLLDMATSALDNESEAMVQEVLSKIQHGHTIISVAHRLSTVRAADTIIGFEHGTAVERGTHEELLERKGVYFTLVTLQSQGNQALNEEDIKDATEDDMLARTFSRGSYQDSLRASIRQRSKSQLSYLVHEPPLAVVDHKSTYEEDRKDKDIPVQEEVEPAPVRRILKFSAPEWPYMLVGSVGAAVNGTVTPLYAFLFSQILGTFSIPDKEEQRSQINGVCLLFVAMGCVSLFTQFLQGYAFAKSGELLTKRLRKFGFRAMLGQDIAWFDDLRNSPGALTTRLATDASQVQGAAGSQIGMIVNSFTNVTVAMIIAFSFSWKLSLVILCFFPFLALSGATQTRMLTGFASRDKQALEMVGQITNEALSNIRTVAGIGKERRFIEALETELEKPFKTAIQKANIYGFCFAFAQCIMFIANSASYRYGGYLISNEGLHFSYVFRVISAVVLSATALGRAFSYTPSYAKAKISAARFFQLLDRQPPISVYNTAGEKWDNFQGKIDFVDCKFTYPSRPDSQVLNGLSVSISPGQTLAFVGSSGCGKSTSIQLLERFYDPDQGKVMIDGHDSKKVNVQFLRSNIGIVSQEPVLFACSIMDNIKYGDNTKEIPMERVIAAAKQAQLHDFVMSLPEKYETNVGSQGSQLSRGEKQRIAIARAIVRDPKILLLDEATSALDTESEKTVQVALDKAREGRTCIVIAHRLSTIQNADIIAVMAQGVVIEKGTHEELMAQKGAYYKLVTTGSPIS

Turning to `C[C@@H](OC(=O)Nc1c(-c2ccc(NC(=O)[C@H]3CCCC[C@@H]3C(=O)O)cc2)nnn1C)c1ccccc1Cl` [Example 23, (1S,2S)-2-((4-(5-((((R)-1-(2-chlorophenyl)ethoxy)carbonyl)amino)-1-methyl-1H-1,2,3-triazol-4-yl)phenyl)carbamoyl)cyclohexane-1-carboxylic acid], the IC50 in data set [1] (setting [2]) is less than 50 nM. Further, the inhibition at 10 min, 50 μM at BSEP is no more than 50%.
Consider `C[C@@H](OC(=O)Nc1c(-c2ccc(NC(=O)C3CCCCC3C(=O)O)cc2)cnn1C)c1ccccc1Cl` (single isomer, unassigned) [Example 5], for which the IC50 in data set [1] (setting [2]) lay in the range of 250 to 600 nM.
With `Cc1nc(-c2nnn(C)c2NC(=O)O[C@H](C)c2ccccc2)ccc1NC(=O)[C@H]1CCCC[C@@H]1C(=O)O` [Example 44, (1S,2S)-2-((2-methyl-6-(1-methyl-5-((((R)-1-phenylethoxy)carbonyl)amino)-1H-1,2,3-triazol-4-yl)pyridin-3-yl)carbamoyl)cyclohexane-1-carboxylic acid], the IC50 in data set [1] (setting [2]) is less than 50 nM. Besides, the inhibition at 10 min, 50 μM against BSEP was no more than 50%.
Consider `Cc1nc(-c2onc(C)c2NC(=O)O[C@H](C)c2cccnc2)ccc1NC(=O)C1CCCCC1C(=O)O` (stereo partly drawn) [Example 33, Cis-2-((2-methyl-6-(3-methyl-4-((((R)-1-(pyridin-3-yl)ethoxy)carbonyl)amino)isoxazol-5-yl)pyridin-3-yl)carbamoyl)cyclohexane-1-carboxylic acid], for which, in data set [1] (setting [2]), the IC50 lay in the range of 250 to 600 nM.
Still for that read-out and setting: the same measure for `C[C@@H](OC(=O)Nc1c(-c2ccc(NC(=O)C3CCCCC3C(=O)O)cc2)cnn1C)c1ccccc1Cl` (single isomer, unassigned) [Example 4]: less than 50 nM.
Regarding `C[C@@H](OC(=O)Nc1c(-c2ccc(NC(=O)[C@H]3CCCC[C@@H]3C(=O)O)c(F)n2)nnn1C)c1ccccc1Cl` [Example 53, (1S,2S)-2-((6-(5-((((R)-1-(2-chlorophenyl)ethoxy)carbonyl)amino)-1-methyl-1H-1,2,3-triazol-4-yl)-2-fluoropyridin-3-yl)carbamoyl)cyclohexane-1-carboxylic acid], the IC50 in data set [1] (setting [2]) is less than 50 nM. Besides, at BSEP, the inhibition at 10 min, 50 μM is no more than 50%.
For `Cc1nc(-c2nnn(C)c2NC(=O)O[C@H](C)c2ccccc2Cl)ccc1NC(=O)[C@H]1CCCC[C@@H]1C(=O)O` [Example 3, (1S,2S)-2-((6-(5-((((R)-1-(2-chlorophenyl)ethoxy)carbonyl)amino)-1-methyl-1H-1,2,3-triazol-4-yl)-2-methylpyridin-3-yl)carbamoyl)cyclohexane-1-carboxylic acid], in that order: less than 50 nM and no more than 50%.
Taken in the same sequence, the figures for `Cc1nc(-c2onc(C)c2NC(=O)O[C@H](C)c2nccs2)ccc1NC(=O)[C@H]1CCCC[C@@H]1C(=O)O` [Example 22, (1S,2S)-2-((2-methyl-6-(3-methyl-4-((((R)-1-(thiazol-2-yl)ethoxy)carbonyl)amino)isoxazol-5-yl)pyridin-3-yl)carbamoyl)cyclohexane-1-carboxylic acid] were 250 to 600 nM and no more than 50%.
Take `Cc1nc(-c2onc(C)c2NC(=O)OC(C)c2cccnc2F)ccc1NC(=O)[C@H]1CCCC[C@@H]1C(=O)O` (single isomer, unassigned) [Example 20]: the IC50 in data set [1] (setting [2]) is 50 to 250 nM. At BSEP, the inhibition at 10 min, 50 μM is no more than 50%.
Taken in the same sequence, the figures for `Cc1nc(-c2onc(C)c2NC(=O)O[C@H](C)c2cccnc2Cl)ccc1NC(=O)[C@H]1CCCC[C@@H]1C(=O)O` [Example 11, (1S,2S)-2-((6-(4-((((R)-1-(2-chloropyridin-3-yl)ethoxy)carbonyl)amino)-3-methylisoxazol-5-yl)-2-methylpyridin-3-yl)carbamoyl)cyclohexane-1-carboxylic acid] were 50 to 250 nM and no more than 50%.
`Cc1noc(-c2ccc(NC(=O)C3CCCCC3C(=O)O)cc2)c1NC(=O)O[C@H](C)c1cccnc1` (stereo partly drawn) [comparative Example B, 2-((4-(3-methyl-4-((((R)-1-(pyridin-3-yl)ethoxy)carbonyl)amino)isoxazol-5-yl)phenyl)carbamoyl)cyclohexane-1-carboxylic acid, reference compound]: the IC50 in data set [1] (comparative compound, read-out: IC50 on receptor LPA1) was greater than 1000 nM.
For the compound `C[C@@H](OC(=O)Nc1ccsc1-c1ccc(NC(=O)C2CCCCC2C(=O)O)cc1)c1ccccc1Cl` (single isomer, unassigned) [Example 10], in data set [1] (setting [2]), the IC50 is less than 50 nM. In addition, the “BSEP Inhibition at 50 μM” value on BSEP is on record as no more than 50%.
On to `Cc1noc(-c2ccc(NC(=O)[C@H]3CCCC[C@@H]3C(=O)O)cn2)c1NC(=O)O[C@H](C)c1cccnc1Cl` [Example 29, (1S,2S)-2-((6-(4-((((R)-1-(2-chloropyridin-3-yl)ethoxy)carbonyl)amino)-3-methylisoxazol-5-yl)pyridin-3-yl)carbamoyl)cyclohexane-1-carboxylic acid], for which, in data set [1] (setting [2]), the IC50 lay in the range of 50 to 250 nM. Also, the inhibition at 10 min, 50 μM against BSEP was no more than 50%.
For `Cc1noc(-c2ccc(N(C)C(=O)[C@H]3CCCC[C@@H]3C(=O)O)cn2)c1NC(=O)O[C@H](C)c1cccnc1Cl` [Example 30, (1S,2S)-2-((6-(4-((((R)-1-(2-chloropyridin-3-yl)ethoxy)carbonyl)amino)-3-methylisoxazol-5-yl)pyridin-3-yl)(methyl)carbamoyl)cyclohexane-1-carboxylic acid], in that order: 250 to 600 nM and no more than 50%.
On to `Cc1nc(-c2onc(C)c2NC(=O)OC(C)c2cccnc2F)ccc1NC(=O)[C@H]1CCCC[C@@H]1C(=O)O` (stereo partly drawn) [Example 19, (1S,2S)-2-((6-(4-(((1-(2-fluoropyridin-3-yl)ethoxy)carbonyl)amino)-3-methylisoxazol-5-yl)-2-methylpyridin-3-yl)carbamoyl)cyclohexane-1-carboxylic acid], for which the IC50 in data set [1] (setting [2]) was 50 to 250 nM.
Regarding `Cc1noc(-c2ccc(NC(=O)[C@H]3CCCC[C@@H]3C(=O)O)cn2)c1NC(=O)OC(C)c1cccnc1F` (single isomer, unassigned) [Example 18], the IC50 in data set [1] (setting [2]) was 50 to 250 nM. Also, at BSEP, the inhibition at 10 min, 50 μM is no more than 50%.
As to `C[C@@H](OC(=O)Nc1ccsc1-c1ccc(NC(=O)C2CCCCC2C(=O)O)cc1)c1ccccc1Cl` (stereo partly drawn) [Example 6, Cis-2-((4-(3-((((R)-1-(2-chlorophenyl)ethoxy)carbonyl)amino)thiophen-2-yl)phenyl)carbamoyl)cyclohexane-1-carboxylic acid], in data set [1] (setting [2]), the IC50 was less than 50 nM.
Same read-out and setting: in the case of `C[C@@H](OC(=O)Nc1ccsc1-c1ccc(NC(=O)C2CCCCC2C(=O)O)cc1)c1ccccc1Cl` (single isomer, unassigned) [Example 8] it was 250 to 600 nM.
Consider `Cc1nc(-c2onc(C)c2NC(=O)O[C@H](C)c2ccccc2Cl)ccc1NC(=O)C1CCCCC1C(=O)O` (single isomer, unassigned) [Example 14], for which, on BSEP, the “BSEP Inhibition at 50 μM” value is no more than 50%.
In the case of `C[C@@H](OC(=O)Nc1ccsc1-c1ccc(NC(=O)[C@H]2CCCC[C@@H]2C(=O)O)cn1)c1ccccc1Cl` [Example 21, (1S,2S)-2-((6-(3-((((R)-1-(2-chlorophenyl)ethoxy)carbonyl)amino)thiophen-2-yl)pyridin-3-yl)carbamoyl)cyclohexane-1-carboxylic acid], in data set [1] (setting [2]), the half-maximal inhibitory concentration (IC50) was 250 to 600 nM.
